Measured values reported in PubChem BioAssay (NCI).
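Results reflect a 48-hour exposure of cells in 96-well plates to compound at five concentrations. At the TGI there is no net growth.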

What was measured:
Experiment in all cases: NCI anticancer screen, dose series, 48 h
K-562 leukemia = system: K-562 leukemia
IGROV1 ovarian = system: IGROV1 ovarian
SF-295 CNS = system: SF-295 CNS
SF-539 CNS = system: SF-539 CNS
SNB-75 CNS = system: SNB-75 CNS
OVCAR-8 ovarian = system: OVCAR-8 ovarian
TK-10 renal = system: TK-10 renal
OVCAR-4 ovarian = system: OVCAR-4 ovarian
UO-31 renal = system: UO-31 renal
DLD-1 colon = system: DLD-1 colon
HOP-92 NSCLC = system: HOP-92 NSCLC
SN12C renal = system: SN12C renal
SK-MEL-2 melanoma = system: SK-MEL-2 melanoma
SW-620 colon = system: SW-620 colon
HCT-116 colon = system: HCT-116 colon
RPMI-8226 leukemia = system: RPMI-8226 leukemia
SNB-78 CNS = system: SNB-78 CNS
RXF-631 renal = system: RXF-631 renal
EKVX NSCLC = system: EKVX NSCLC
CCRF-CEM leukemia = system: CCRF-CEM leukemia
UACC-62 melanoma = system: UACC-62 melanoma
MOLT-4 leukemia = system: MOLT-4 leukemia
OVCAR-3 ovarian = system: OVCAR-3 ovarian
HCC-2998 colon = system: HCC-2998 colon
COLO 205 colon = system: COLO 205 colon
HCT-15 colon = system: HCT-15 colon
HL-60(TB) leukemia = system: HL-60(TB) leukemia
SK-OV-3 ovarian = system: SK-OV-3 ovarian
SK-MEL-28 melanoma = system: SK-MEL-28 melanoma
M19-MEL melanoma = system: M19-MEL melanoma
LXFL 529 NSCLC = system: LXFL 529 NSCLC
U251 CNS = system: U251 CNS
M14 melanoma = system: M14 melanoma
SK-MEL-5 melanoma = system: SK-MEL-5 melanoma
DMS 273 small cell lung = system: DMS 273 small cell lung
HT29 colon = system: HT29 colon
KM12 colon = system: KM12 colon
A549 NSCLC = system: A549 NSCLC
LOX IMVI melanoma = system: LOX IMVI melanoma
SNB-19 CNS = system: SNB-19 CNS
786-0 renal = system: 786-0 renal
NCI-H226 lung = system: NCI-H226 lung
ACHN renal = system: ACHN renal
HOP-18 NSCLC = system: HOP-18 NSCLC
KM20L2 colon = system: KM20L2 colon
NCI-H23 lung = system: NCI-H23 lung
A498 renal = system: A498 renal
SR leukemia = system: SR leukemia
RXF 393 renal = system: RXF 393 renal
UACC-257 melanoma = system: UACC-257 melanoma
HOP-62 NSCLC = system: HOP-62 NSCLC
DMS 114 small cell lung = system: DMS 114 small cell lung
NCI-H460 lung = system: NCI-H460 lung
NCI-H522 lung = system: NCI-H522 lung
XF 498 CNS = system: XF 498 CNS

Measured: TGI

COCC1N=C(c2cc(OC)c(OC)c(OC)c2-c2cc3c(cc2[C@H](C)O)OCO3)O[C@H]1c1ccccc1 (stereo partly specified)
> 10 µM: K-562 leukemia | CCRF-CEM leukemia | HL-60(TB) leukemia
85.2 µM: COLO 205 colon
86.4 µM: HOP-92 NSCLC
not listed: A498 renal | SR leukemia | RXF 393 renal | UACC-257 melanoma | HOP-62 NSCLC | DMS 114 small cell lung | NCI-H460 lung | NCI-H522 lung | XF 498 CNS
> 100 µM: all other assays above

O=C(c1ccccc1)c1cc(Cl)ccc1NCn1nnc2ccccc21
88.8 µM: HL-60(TB) leukemia
not listed: HCT-116 colon | SNB-78 CNS | RXF-631 renal | SK-MEL-28 melanoma | SK-MEL-5 melanoma
> 100 µM: all other assays above
